From patent publication US12590953B2, “Methods for screening cereblon modifying compounds” (CELGENE CORPORATION, priority 2018, dated 2026)
Peptide text beside a SMILES is read from it. * marks the point of attachment. Cbz = O=C(OCc1ccccc1)*

Assays:
SALL4 = target: T1, SALL4 (Homo sapiens, UniProt Q96SW2+Q9UJQ4); experiment: SALL4 protein level in human iPS cells, immunoblot; assay type: cell-based; conditions: human iPS cells; 1 μM MLN4924 or 10 μM MG132 for 6 hours with thalidomide
T1 construct: host or cells: human iPS cells (CRBN wild-type and CRBN knock-out)
Protocol: Immunoblot analysis of whole cell lysates of CRBN wild-type (WT) and CRBN knock-out (−/−) human iPS cells was performed. Cells were treated with DMSO vehicle control (−) or thalidomide (Thal) at indicated concentrations for 16 hours (n=4, biological replicates).
Immunoblot analysis of whole cell lysates of human iPS cells treated with DMSO (−) or Thal (+) in the presence or absence of 1 μM MLN4924 or 10 μM MG132 for 6 hours were performed (n=2, biological replicates).
Human iPS cell lines ACS-1019 and ACS-1011 (derived from healthy donors) were obtained from ATCC. The hiPSCs were maintained in mTESR-1 medium (Stem Cell Technologies) in cell culture plates coated with a thin layer of Matrigel (BD Biosciences) incubated at 37° C. in a humidified 5% CO2 incubator according to the manufacturer's instruction. Cells were split through mechanic passaging with a glass pipet and enzymatically digestion with Dispase or Accutase every 2 to 3 days.
Human iPSCs, ACS-1019 was transduced with lentiviral vectors expressing CRISPR-Cas9 and small guide RNA targeting cereblon for 4 days. The resulting colonies were amplified and screened for cereblon knockout by immunoblot analysis with anti-CRBN65 antibody (Celgene).

[1] = target: T2, endogenous SALL4 in NCCIT, NETRA-2 c1.D1 and AN3-CA cancer cell lines (Homo sapiens, UniProt Q96SW2+Q9UJQ4); experiment: Degradation of endogenous SALL4 in cancer cell lines, western blot; assay type: cell-based; conditions: 16 hour treatment; anti-SALL4 western blot
T2 construct: endogenous in cells; host or cells: NCCIT, NETRA-2 c1.D1 and AN3-CA cancer cell lines

[2] = test system: SALL4 binding to cereblon; assay type: cell-based, human
Protocol: Binding of full length SALL4 to cereblon in cells was then tested by co-immunoprecipitation (see FIG. 3). HA-tagged WT, G416A, or G600A SALL4 was immunoprecipitated from cells, and the level of co-purifying cereblon was assessed by western blot. Briefly, a Lenti-x 293 cell line with a CRISPR-cas9 knock-out of cereblon and stable expression of HA-tagged SALL4 or SALL4 mutants was transfected with either GST-cereblon or empty vector. […] The amount of co-purifying GST-cereblon was then assessed by western blot.

ZFP91 = target: T3, ZFP91 (Homo sapiens, UniProt Q96JP5+Q96SW2); experiment: Degradation of ZFP91 in Lenti-x 293 cells (control substrate); assay type: cell-based; conditions: Lenti-x 293 cell lines expressing cereblon
T3 construct: endogenous in cells; host or cells: Lenti-x 293 cell line with CRISPR-cas9 cereblon knock-out, transfected with GST-cereblon
T3 sequence (Q96JP5 2-570 limits assumed): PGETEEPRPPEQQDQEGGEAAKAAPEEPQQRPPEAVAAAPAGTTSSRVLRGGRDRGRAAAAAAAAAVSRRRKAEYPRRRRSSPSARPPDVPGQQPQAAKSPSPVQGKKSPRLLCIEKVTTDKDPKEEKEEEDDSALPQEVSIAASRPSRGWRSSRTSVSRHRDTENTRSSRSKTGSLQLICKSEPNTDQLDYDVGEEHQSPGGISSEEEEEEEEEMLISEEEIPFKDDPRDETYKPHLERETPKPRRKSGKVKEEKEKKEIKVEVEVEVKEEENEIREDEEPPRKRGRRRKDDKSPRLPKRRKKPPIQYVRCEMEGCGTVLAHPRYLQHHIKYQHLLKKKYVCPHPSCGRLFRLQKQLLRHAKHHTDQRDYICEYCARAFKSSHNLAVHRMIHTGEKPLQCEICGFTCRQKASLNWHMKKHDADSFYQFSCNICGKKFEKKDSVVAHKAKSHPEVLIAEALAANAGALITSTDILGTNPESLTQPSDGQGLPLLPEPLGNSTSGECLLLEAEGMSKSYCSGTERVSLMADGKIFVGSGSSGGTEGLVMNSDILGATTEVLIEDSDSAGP
T3 sequence (Q96SW2 whole entry): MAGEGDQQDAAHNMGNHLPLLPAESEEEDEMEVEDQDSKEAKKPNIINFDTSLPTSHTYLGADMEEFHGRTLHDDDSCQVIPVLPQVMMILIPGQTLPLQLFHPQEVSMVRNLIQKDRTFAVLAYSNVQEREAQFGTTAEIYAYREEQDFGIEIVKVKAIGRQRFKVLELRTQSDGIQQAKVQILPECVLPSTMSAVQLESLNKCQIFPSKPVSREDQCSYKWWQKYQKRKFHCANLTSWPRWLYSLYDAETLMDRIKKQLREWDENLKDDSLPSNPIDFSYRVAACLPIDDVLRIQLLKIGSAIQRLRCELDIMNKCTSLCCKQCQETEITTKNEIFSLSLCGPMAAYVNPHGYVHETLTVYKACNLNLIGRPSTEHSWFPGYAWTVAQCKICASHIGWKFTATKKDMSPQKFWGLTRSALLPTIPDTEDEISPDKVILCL
T3 sequence (Q16531 whole entry partner): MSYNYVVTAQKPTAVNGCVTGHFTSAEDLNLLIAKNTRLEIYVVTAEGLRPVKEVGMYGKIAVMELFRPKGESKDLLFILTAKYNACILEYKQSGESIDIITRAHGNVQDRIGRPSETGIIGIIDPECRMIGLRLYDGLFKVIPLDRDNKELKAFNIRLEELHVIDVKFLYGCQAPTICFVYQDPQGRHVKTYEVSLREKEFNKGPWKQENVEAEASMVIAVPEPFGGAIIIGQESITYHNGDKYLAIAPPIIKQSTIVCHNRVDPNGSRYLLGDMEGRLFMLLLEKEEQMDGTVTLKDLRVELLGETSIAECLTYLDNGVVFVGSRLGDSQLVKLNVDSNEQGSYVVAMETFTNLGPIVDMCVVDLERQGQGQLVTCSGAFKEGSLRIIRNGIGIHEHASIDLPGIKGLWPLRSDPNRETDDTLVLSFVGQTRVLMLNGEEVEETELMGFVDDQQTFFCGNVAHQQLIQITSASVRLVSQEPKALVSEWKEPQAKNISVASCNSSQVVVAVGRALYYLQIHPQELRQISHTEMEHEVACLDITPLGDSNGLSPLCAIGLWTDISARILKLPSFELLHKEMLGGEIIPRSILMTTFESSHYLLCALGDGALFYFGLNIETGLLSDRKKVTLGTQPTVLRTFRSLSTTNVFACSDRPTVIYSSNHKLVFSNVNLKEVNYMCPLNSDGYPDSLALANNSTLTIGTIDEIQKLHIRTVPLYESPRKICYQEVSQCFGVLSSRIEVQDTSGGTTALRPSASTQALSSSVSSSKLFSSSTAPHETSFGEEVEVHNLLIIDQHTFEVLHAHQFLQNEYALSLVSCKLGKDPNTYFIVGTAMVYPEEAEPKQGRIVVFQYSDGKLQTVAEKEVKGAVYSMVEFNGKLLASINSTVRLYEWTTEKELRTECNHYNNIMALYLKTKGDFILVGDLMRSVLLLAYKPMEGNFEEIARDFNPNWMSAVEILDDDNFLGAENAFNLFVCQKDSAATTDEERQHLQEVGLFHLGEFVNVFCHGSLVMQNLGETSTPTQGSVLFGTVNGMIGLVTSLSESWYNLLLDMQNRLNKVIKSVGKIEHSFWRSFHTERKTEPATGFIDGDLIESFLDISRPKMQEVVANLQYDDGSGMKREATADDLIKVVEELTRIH

T1 sequence (Q9UJQ4 whole entry): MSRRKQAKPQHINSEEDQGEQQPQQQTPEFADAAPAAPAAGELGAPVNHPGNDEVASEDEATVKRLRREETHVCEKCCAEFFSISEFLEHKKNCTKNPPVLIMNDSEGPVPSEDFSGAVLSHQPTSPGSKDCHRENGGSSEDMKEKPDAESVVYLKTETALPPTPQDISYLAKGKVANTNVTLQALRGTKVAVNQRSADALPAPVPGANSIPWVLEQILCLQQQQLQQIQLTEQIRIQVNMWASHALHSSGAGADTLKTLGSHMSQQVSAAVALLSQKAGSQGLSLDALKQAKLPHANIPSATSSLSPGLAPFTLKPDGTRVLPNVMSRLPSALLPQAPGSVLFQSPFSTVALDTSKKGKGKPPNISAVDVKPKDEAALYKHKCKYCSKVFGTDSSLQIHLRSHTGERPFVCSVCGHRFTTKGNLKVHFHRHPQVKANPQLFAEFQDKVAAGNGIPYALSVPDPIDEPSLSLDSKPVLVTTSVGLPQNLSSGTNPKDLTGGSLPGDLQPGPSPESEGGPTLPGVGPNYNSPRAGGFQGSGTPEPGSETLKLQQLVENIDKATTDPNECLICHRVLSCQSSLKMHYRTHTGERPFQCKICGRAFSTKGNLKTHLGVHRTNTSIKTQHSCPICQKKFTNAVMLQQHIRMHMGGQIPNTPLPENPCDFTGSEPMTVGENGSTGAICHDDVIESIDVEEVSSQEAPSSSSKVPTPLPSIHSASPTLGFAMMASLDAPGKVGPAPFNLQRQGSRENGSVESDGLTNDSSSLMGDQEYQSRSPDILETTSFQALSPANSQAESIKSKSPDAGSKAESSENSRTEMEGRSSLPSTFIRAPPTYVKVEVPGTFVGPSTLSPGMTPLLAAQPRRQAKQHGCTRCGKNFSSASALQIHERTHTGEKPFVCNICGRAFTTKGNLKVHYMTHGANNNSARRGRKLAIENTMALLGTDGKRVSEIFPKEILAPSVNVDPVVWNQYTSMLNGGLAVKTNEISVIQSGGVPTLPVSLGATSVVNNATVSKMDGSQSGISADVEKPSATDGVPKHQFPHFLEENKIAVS
T1 sequence (Q96SW2 whole entry): as the sequence (Q96SW2 whole entry) above
T1 sequence (Q16531 whole entry partner): as the sequence (Q16531 whole entry partner) above

Row | Binding of G416A SALL4 to cereblon ([2]; HA-tagged G416A SALL4, anti-HA pull-down) | SMILES | Effect on thalidomide-induced reduction in SALL4 protein levels (SALL4) | Degradation of endogenous SALL4 [1] | Binding of G600A SALL4 to cereblon ([2]; HA-tagged G600A SALL4, anti-HA pull-down) | Binding of WT SALL4 to cereblon (co-purifying GST-cereblon, western blot) ([2]; HA-tagged WT SALL4, anti-HA pull-down) | ZFP91 degradation (ZFP91)
1 |  | CC(C)C[C@@H](C=O)NC(=O)[C@H](CC(C)C)NC(=O)[C@H](CC(C)C)NC(=O)OCc1ccccc1 [MG132] (Cbz-Leu-Leu-Leu-aldehyde) | prevented |  |  |  | 
2 |  | NS(=O)(=O)OC[C@@H]1C[C@@H](n2ccc3c(N[C@H]4CCc5ccccc54)ncnc32)C[C@@H]1O [MLN4924] | prevented |  |  |  | 
3 | disrupted the binding significantly | Nc1cccc2c1C(=O)N(C1CCC(=O)NC1=O)C2=O (stereo not shown) [pomalidomide] |  | Significant compound-dependent degradation of endogenous SALL4 was observed | strong, compound-dependent binding to cereblon | strong, compound-dependent binding to cereblon | exhibited compound-dependent degradation in all cell lines expressing cereblon
